US12322837B2, “Electrochemical reduction of halogenated compounds comprising a haloalkane” (Massachusetts Institute of Technology, priority 2021, dated 2025)
In brackets after ≈: the same amount, converted by molar mass.

Experiments:
[1] = Ionic conductivity of NO2-Ph-SF5-containing electrolytes; format: physicochemical
Excerpt: Theoretical capacities correspond to 8 e^−per molecule. Capacities increased from 292 to 362 mAh·gsub-stack^−1 as concentration increased from 3 M to 4 M, beyond which further gains were negligible. The maximum gravimetric energy of 1085 Wh·kgsub-stack^−1 was obtained at 4.5 M. Capacity and energy decreased with concentrations exceeding 4.5 M due to diminishing supporting solvent (DMSO, ˜16 wt. % of the catholyte at 5 M), which led to significant decline in ionic conductivity from 6.4 to 0.6 mS·cm^−1 from 0.1 M to 5 M (FIG. 24). Additionally, low DMSO content decreases the ability to solubilize LiF, making electrode passivation effects more severe. Capacities remained constant at ˜362 mAh·gsub-stack^−1 from 0.3-1.0 mA·cm^−2 (0.01 C-0.04 C) and decreased moderately thereafter up to 3 mA·cm^−2 (0.12 C), indicating excellent rate capability.

[2] = Solubility/miscibility of reactants in DMSO or 0.1 M LiClO4/DMSO; format: physicochemical; details: for miscibility with 0.1 M LiClO4/DMSO: even at 50° C.
Excerpt: To understand the effect of the chain length of the RF group, the discharge profiles of Ph-NO2-C6 (o) vs. Ph-NO2-C8 (o) and Ph-CN-C6 (p) vs. Ph-CN-C8 (p) were compared. As is shown in FIG. 5, up to 11 e- or 15 e- transfer per molecule (calculated based on capacities) can be obtained during discharge for C6 or C8 containing reactants, respectively. […] For example, Ph-CN-C6 (p) is liquid and miscible with DMSO at RT, but its C8 counterpart is solid at RT and is only soluble at elevated temperatures (e.g., 50° C.).

O=[N+]([O-])c1ccc(S(F)(F)(F)(F)F)cc1 [NO2-Ph-SF5, 4-Nitrophenylsulfur pentafluoride]
ionic conductivity of electrolyte ([1]; 0.1 M NO2-Ph-SF5): 6.4 mS·cm^−1 | ionic conductivity of electrolyte ([1]; 5 M NO2-Ph-SF5): 0.6 mS·cm^−1

FC(F)(F)c1ccccc1C=CC(F)(F)C(F)(F)C(F)(F)C(F)(F)C(F)(F)C(F)(F)F [Ph-CF3—C6 (o)]
miscibility with 0.1 M LiClO4/DMSO [2]: negligible miscibility

FC(F)(F)c1ccc(C=CC(F)(F)C(F)(F)C(F)(F)C(F)(F)C(F)(F)C(F)(F)F)cc1 [Ph-CF3—C6 (p)]
miscibility with 0.1 M LiClO4/DMSO [2]: negligible miscibility

N#Cc1ccc(C=CC(F)(F)C(F)(F)C(F)(F)C(F)(F)C(F)(F)C(F)(F)F)cc1 [Ph-CN-C6 (p)]
miscibility with DMSO ([2]; RT): miscible

N#Cc1ccc(C=CC(F)(F)C(F)(F)C(F)(F)C(F)(F)C(F)(F)C(F)(F)C(F)(F)C(F)(F)F)cc1 [Ph-CN-C8 (p)]
solubility limit in 0.1 M LiClO4/DMSO ([2]; 50° C.): 800 mM (≈ 438 mg/mL) | solubility / reachable concentration in 0.1 M LiClO4/DMSO ([2]; RT): not soluble

O=[N+]([O-])c1ccccc1C=CC(F)(F)C(F)(F)C(F)(F)C(F)(F)C(F)(F)C(F)(F)C(F)(F)C(F)(F)F [Ph-NO2—C8 (o)]
solubility / reachable concentration in 0.1 M LiClO4/DMSO ([2]; RT): 2000 mM (≈ 1130 mg/mL)
